Paper PMC6680932, “Structure–Antioxidant–Antiproliferative Activity Relationships of Natural C7 and C7–C8 Hydroxylated Flavones and Flavanones” (Antioxidants, 2019)
Read-outs that look alike come from different tables or passages of the source.

Tests used:
[1] = DPPH free radical scavenging activity assay; settings: for TEAC DPPH: 10 min, 517 nm, mean ± SD; for increase of antioxidant activity in DPPH test, biotransformation product vs substrate: 8-hydroxylated product relative to the substrate from which it was obtained
Protocol: (§1) The antioxidant capacity of flavonoids was measured in three separate tests: ABTS, DPPH, and ferric ion reducing antioxidant power (FRAP) assays (ABTS, DPPH, and FRAP reagents from Sigma-Aldrich). All tested compounds were dissolved in DMSO. All determinations were performed in triplicate. Standard curves were prepared for all assays using different concentrations of Trolox (6-hydroxy-2,5,7,8-tetramethylchroman-2-carboxylic acid) (Sigma-Aldrich). Trolox is a water-soluble analogue of vitamin E with high antioxidant activity, commonly used as a control and a reference in studies of antioxidant activity. The results were expressed as the equivalent of μmol Trolox per μmol of the test compound. The absorbance was measured using a UV-2401 PC spectrophotometer (Shimadzu, Kyoto, Japan). Concentrations of the tested samples were in the range from 50 µg/mL to 10 mg/mL.
The DPPH (2,2-diphenyl-1-picrylhydrazyl) radical scavenging activity of samples was determined according to the method described by Yen and Chen with some modifications. Samples (0.1 mL) of known concentration were mixed in polystyrene cuvettes with 2 mL of 0.04 mM DPPH in ethanol and 0.4 mL of ethanol. The absorbance was measured after 10 min at λ = 517 nm. The DPPH reagent was freshly prepared before each experiment.

[2] = ABTS radical cation decolorization assay; settings: for TEAC ABTS: 6 min incubation, 734 nm, mean ± SD; for increase of antioxidant activity in ABTS test, biotransformation product vs substrate: 8-hydroxylated product relative to the substrate from which it was obtained
Protocol: as §1
The radical cation scavenging capacity of the tested compounds was examined against ABTS^+ (2,2’-azino-bis(3-ethylbenzo-thiazoline-6-sulfonic acid) according to the procedure described by Re et al. with some modifications. The test sample (30 μL) of known concentration was mixed in a polystyrene cuvette with 3 mL of ABTS solution with a measured absorption of 0.700 at a wavelength of λ = 734 nm. After 6 min of incubation, the absorption of samples was recorded. The ABTS reagent was freshly prepared before each experiment.

LoVo (colon cancer) = experiment: Antiproliferative activity in vitro, SRB assay; format: cell-based, human; settings: read-out: IC50 ± SD LoVo
Protocol: (§2) The antiproliferative studies were performed in vitro using human cancer cell lines—MV-4-11 (biphenotypic B myelomonocytic leukemia), MCF7 (breast carcinoma), LoVo (colon cancer), LoVo/DX (colon cancer doxorubicin-resistant), and DU 145 (prostate cancer)—and normal human cell lines—MCF 10A (breast cells) and HLMEC (lung microvascular endothelial cells). The cell lines MV-4-11, LoVo, DU 145, and MCF 10A were obtained from the American Type Culture Collection (Rockville, Maryland, USA), MCF7 from the European Collection of Authenticated Cell Cultures (ECACC, Salisbury, UK), LoVo/DX courtesy of Professor E. Borowski (Technical University of Gdansk, Poland), and HLMECs (which had been already immortalized by transfection with pSV3-neoplasmid containing large T-antigen gene) were the kind gift of Professor Claudine Kieda (Center for Molecular Biophysics, Orleans, France). The cell lines are being maintained in the Hirszfeld Institute of Immunology and Experimental Therapy, Polish Academy of Sciences (HIIET, PAS), Wroclaw, Poland. All cell lines were grown at 37 °C with 5% CO2 humidified atmosphere. The MV-4-11 cells were cultured in RPMI 1640 medium with GlutaMAX (Gibco, Scotland, UK), supplemented with 1 mM sodium pyruvate and 10% fetal bovine serum (both from Sigma-Aldrich, Poznan, Poland). The MCF7 cells were cultured in Eagle medium (HIIET, PAS, Wroclaw, Poland) supplemented with 2 mM L-glutamine, 10% fetal bovine serum, 1% nonessential amino acid solution, and 0.8 mg/L of insulin (all from Sigma-Aldrich, Poznan, Poland). The LoVo and LoVo/DX cells were cultured in a 1:1 (v/v) mixture of RPMI 1640 and Opti-MEM (both HIIET, PAS, Wroclaw, Poland), supplemented with 1 mM sodium pyruvate, 2 mM L-glutamine, and 5% fetal bovine serum (all from Sigma-Aldrich, Poznan, Poland). For LoVo/DX cells, additionally 10 µg/100 mL of doxorubicin (Accord Healthcare) was added to the medium. DU 145 cells were cultured in Eagle medium (HIIET, PAS, Wroclaw, Poland) supplemented with 1 mM sodium pyruvate, 4 mM L-glutamine, and 10% fetal bovine serum (all from Sigma-Aldrich, Poznan, Poland). The MCF 10A cells were cultured in the F-12 nutrient mixture (Gibco, Scotland, UK), supplemented with 5% horse serum (Gibco, Scotland, UK), 0.05 μg/mL of cholera toxin (Vibrio cholerae), 0.5 μg/mL of hydrocortisone, 10 μg/mL of insulin, and 20 ng/mL of human epidermal growth factor (all from Sigma-Aldrich, Poznan, Poland). The HLMEC cells were cultured in the RPMI 1640 medium (HIIET, PAS, Wroclaw, Poland) with the addition of 2 mM L-glutamine (Sigma-Aldrich, Poznan, Poland) and 10% fetal bovine serum (GE Healthcare). All culture media were supplemented with 100 units/mL penicillin (Polfa Tarchomin S.A., Warsaw, Poland) and 100 µg/mL streptomycin (Sigma-Aldrich, Poznan, Poland). Twenty-four hours before addition of the tested agents, the cells were plated in 96-well plates (Sarstedt, Germany) at a density of 1 × 10^4 (1 × 10^3 for HLMEC and 0.75 × 10^4 for MCF7) cells per well in 100 μL of culture medium.
(§3) Tested compounds were dissolved in DMSO and then diluted in a 1:1 (v/v) mixture of RPMI 1640 (HIIET, PAS, Wroclaw, Poland) and Opti-MEM (Gibco, Scotland, UK) medium supplemented with 2 mM L-glutamine (Sigma-Aldrich, Poznan, Poland), 5% fetal bovine serum (GE Healthcare), 100 units/mL penicillin (Polfa Tarchomin S.A., Warsaw, Poland), and 100 µg/mL streptomycin (Sigma-Aldrich, Poznan, Poland). The antiproliferative effects of the flavonoids were examined after 72 h of exposure of the cultured cells to varying concentrations of the tested agents (from 0.1 to 100 μg/mL) using the MTT (for MV-4-11 cells) or SRB assay described below. Cisplatin (chemotherapy drug used to treat a number of cancers) was used as a positive control. The results are presented as an inhibitory concentration 50 (IC50), which is the concentration of the tested agent that inhibits proliferation of the cell population by 50%. IC50 values for each experiment were calculated separately. […]

[3] = test system: HLMEC (lung microvascular endothelial cells); experiment: Antiproliferative activity in vitro, SRB assay; format: cell-based, human; settings: read-out: IC50 ± SD HLMEC
Protocol: as §2, §3

[4] = FRAP (ferric ion reducing antioxidant power) assay; settings: for TEAC FRAP: 10 min, 593 nm, mean ± SD
Protocol: as §1
The FRAP method is based on measuring the ability of antioxidants to reduce ferric 2,4,6-tris(2-pyridyl)-1,3,5-triazine [Fe(III)-TPTZ] in the blue colored ferrous form, which absorbs light at λ = 593 nm. The Fe(III)-TPTZ reagent was prepared as a mixture of acetate buffer (pH 3.6), 10 mM TPTZ in 40 mM HCl, and 20 mM FeCl3 in the ratio of 10:1:1 (v/v/v). The FRAP reagent was freshly prepared before each experiment. The samples (0.1 mL) were mixed in polystyrene cuvettes with 3 mL of ferric complex and 0.9 mL of distilled water. The absorbance was measured after 10 min at λ = 593 nm.

DU 145 (prostate cancer) = experiment: Antiproliferative activity in vitro, SRB assay; format: cell-based, human; settings: read-out: IC50 ± SD DU 145
MCF7 (breast carcinoma) = experiment: Antiproliferative activity in vitro, SRB assay; format: cell-based, human; settings: read-out: IC50 ± SD MCF7
Protocol: as §2, §3

MCF 10A (breast cells) = experiment: Antiproliferative activity in vitro, SRB assay; format: cell-based, human; settings: read-out: IC50 ± SD MCF 10A
Protocol: as §2, §3

[5] = test system: MV-4-11 (biphenotypic B myelomonocytic leukemia); experiment: Antiproliferative activity in vitro, MTT assay; format: cell-based, human; settings: read-out: IC50 ± SD MV-4-11
[6] = test system: LoVo/DX (colon cancer doxorubicin-resistant); experiment: Antiproliferative activity in vitro, SRB assay; format: cell-based, human; settings: 72 h exposure, read-out: IC50 ± SD LoVo/DX
[7] = Homo sapiens, LoVo, 72 h, 72 h exposure, SRB
[8] = Homo sapiens, Endothelial cell, 72 h exposure, SRB, normal cell line
[9] = 72 h exposure, SRB, normal cell line
[10] = Homo sapiens, MCF7, 72 h exposure, SRB
[11] = Homo sapiens, MV4-11, 72 h exposure

| Compound | IC50 (LoVo (colon cancer); [7]) | IC50 (MCF7 (breast carcinoma); [10]) | IC50 ([6]; Homo sapiens, LoVo/DX) | TEAC DPPH [1] | TEAC ABTS [2] | IC50 [3, 8] | TEAC FRAP [4] | increase of antioxidant activity in DPPH test, biotransformation product vs substrate [1] | increase of antioxidant activity in ABTS test, biotransformation product vs substrate [2] | further results |
| --- | --- | --- | --- | --- | --- | --- | --- | --- | --- | --- |
| O=c1cc(-c2ccccc2)oc2c(O)c(O)cc(O)c12 [Compound 9, 8-hydroxychrysin] |  |  |  | 8.038 ± 0.061 µmol trolox per µmol of tested | 14.173 ± 1.591 µmol trolox per µmol of tested | 120 ± 2.24 µM | 8.900 ± 0.582 µmol trolox per µmol of tested | about 2000 fold | about 170 fold |  |
| O=C1CC(c2ccccc2)Oc2c(O)c(O)cc(O)c21 (centres unmarked) [Compound 13, 8-hydroxypinocembrin] |  |  |  | 9.164 ± 0.097 µmol trolox per µmol of tested | 20.763 ± 0.939 µmol trolox per µmol of tested | 148 ± 13.4 µM | 12.861 ± 0.313 µmol trolox per µmol of tested | about 1800 fold | about 130 fold |  |
| N.N.[Cl][Pt][Cl] [Cisplatin, reference compound] |  |  |  |  |  |  |  |  |  | IC50 (DU 145 (prostate cancer); 72 h exposure, SRB): 1.47 ± 0.12 µM; IC50 (LoVo (colon cancer); 72 h exposure, SRB): 5.87 ± 1.72 µM; IC50 (MCF7 (breast carcinoma); 72 h exposure, SRB): 7.5 ± 1.32 µM; IC50 (MCF 10A (breast cells); [9]): 10.6 ± 1.17 µM; IC50 [3, 9]: 1.07 ± 0.05 µM; IC50 ([5]; 72 h exposure): 1.6 ± 0.33 µM; IC50 [6]: 3.23 ± 0.77 µM |
| O=C1C[C@@H](c2ccc(O)c(O)c2)Oc2cc(O)cc(O)c21 [Compound 7, eriodictyol] |  |  | 99.2 ± 12.5 µM | 9.582 ± 0.315 µmol trolox per µmol of tested | 13.988 ± 0.251 µmol trolox per µmol of tested |  | 10.619 ± 0.319 µmol trolox per µmol of tested |  |  | IC50 (DU 145 (prostate cancer); Homo sapiens, DU-145, 72 h): 121 ± 18.4 µM; IC50 (LoVo (colon cancer); Homo sapiens, LoVo, 72 h): 101 ± 10.9 µM; IC50 (MCF7 (breast carcinoma); Homo sapiens, MCF7, 72 h): 151 ± 9.31 µM; IC50 (MCF 10A (breast cells); Homo sapiens, MCF-10A, 72 h): 147 ± 36.2 µM; IC50 ([3]; Homo sapiens, Endothelial cell, 72 h): 25.8 ± 6.71 µM |
| O=c1cc(-c2ccccc2)oc2cc(O)cc(O)c12 [Compound 1, Chrysin] | 28 ± 8.17 µM | 75 ± 26.1 µM | 13 ± 1.29 µM | 0.004 ± 0.001 µmol trolox per µmol of tested | 0.084 ± 0.011 µmol trolox per µmol of tested | 22.9 ± 2.02 µM |  |  |  | IC50 (MCF 10A (breast cells); Homo sapiens, MCF-10A, 72 h exposure, SRB, normal cell line): 27 ± 12 µM; IC50 [5, 11]: 15.1 ± 1.99 µM |

Continued, in another order:

| IC50 (LoVo (colon cancer); [7]) | IC50 (MCF7 (breast carcinoma); [10]) | IC50 ([6]; Homo sapiens, LoVo/DX) | Compound | TEAC DPPH [1] | TEAC ABTS [2] | IC50 [3, 8] | TEAC FRAP [4] | increase of antioxidant activity in DPPH test, biotransformation product vs substrate [1] | increase of antioxidant activity in ABTS test, biotransformation product vs substrate [2] | further results |
| --- | --- | --- | --- | --- | --- | --- | --- | --- | --- | --- |
| 224 ± 15.3 µM |  |  | COc1ccc(-c2cc(=O)c3c(O)cc(O)c(O)c3o2)cc1O [Compound 12, 8-Hydroxydiosmetin] | 8.496 ± 0.040 µmol trolox per µmol of tested | 13.405 ± 0.826 µmol trolox per µmol of tested | 108 ± 15.4 µM | 11.340 ± 0.203 µmol trolox per µmol of tested |  |  |  |
|  | 135 ± 20.3 µM |  | COc1ccc(C2CC(=O)c3c(O)cc(O)c(O)c3O2)cc1O (centres unmarked) [Compound 18, 8-hydroxyhesperetin] | 14.150 ± 0.229 µmol trolox per µmol of tested | 31.187 ± 1.353 µmol trolox per µmol of tested | 97.1 ± 5.15 µM | 25.260 ± 0.909 µmol trolox per µmol of tested | 144 fold | more than twice as active | increase of antioxidant activity in FRAP test, biotransformation product vs substrate ([4]; 8-hydroxylated product relative to the substrate from which it was obtained): 6 fold |
| 15 ± 2.2 µM | 123 ± 37.4 µM | 13.4 ± 3.02 µM | COc1ccc(-c2cc(=O)c3c(O)cc(O)cc3o2)cc1O [Compound 4, diosmetin] | 0.008 ± 0.001 µmol trolox per µmol of tested | 1.712 ± 0.041 µmol trolox per µmol of tested | 14.4 ± 1.95 µM |  |  |  | IC50 [5, 11]: 8.39 ± 3.53 µM |
| 238 ± 35.4 µM |  |  | O=c1cc(-c2ccc(O)c(O)c2)oc2c(O)c(O)cc(O)c12 [Compound 11, 8-hydroxyluteolin] | 13.208 ± 0.080 µmol trolox per µmol of tested | 34.450 ± 1.016 µmol trolox per µmol of tested | 106 ± 1.72 µM | 36.895 ± 0.432 µmol trolox per µmol of tested |  | more than twice as active |  |
